Results taken from patent US12588678B2, “Oxazoline compound, synthesis method therefor and application thereof” (NANKAI UNIVERSITY, priority 2019, dated 2026).

Columns and labels:
[1] = test system: Tetranychus cinnabarinus mite larvae; experiment: Larvicidal activity test, dipping method on bean seedling leaves; format: in vivo; details: Tetranychus cinnabarinus, 96 h, checked after 4 days
In short: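 Dipping method: larvae-infested bean seedling leaves were immersed 5–6 s in Tween-containing test solution, with a blank of additives only. Larvae had hatched over 5 days from eggs laid during 24 h at 25° C. Mortality % was counted 4 days later, in triplicate.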

[2] = test system: Tetranychus cinnabarinus mite eggs; experiment: Activity against mite eggs, dipping method on bean seedling leaves; format: in vivo; details: Tetranychus cinnabarinus, 96 h, checked after 4 days
In short: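 Dipping method, three replicates each: leaves carrying 1-day-old mite eggs (24 h laying at 25° C.) immersed 5-6 s in compound solution or additive-only blank. Dead eggs counted 4 days later as percent of eggs treated.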

O=S(=O)(Oc1ccc(C2COC(c3c(F)cccc3F)=N2)cc1)c1cccc2ccccc12 (centres unmarked) [Compound R3-20]
mortality at 1 µg/mL ([1]; read-out: mortality of mite larvae (%), 1 mg/L): 55% | mortality at 10 µg/mL ([1]; read-out: mortality of mite larvae (%), 10 mg/L): 80% | mortality at 100 µg/mL ([1]; read-out: mortality of mite larvae (%), 100 mg/L): 90% | mortality at 200 µg/mL ([1]; read-out: mortality of mite larvae (%), 200 mg/L): 100% | mortality at 1 µg/mL ([2]; read-out: mortality of mite eggs (%), 1 mg/L): 30% | mortality at 10 µg/mL ([2]; read-out: mortality of mite eggs (%), 10 mg/L): 70% | mortality at 100 µg/mL ([2]; read-out: mortality of mite eggs (%), 100 mg/L): 80% | mortality at 200 µg/mL ([2]; read-out: mortality of mite eggs (%), 200 mg/L): 100%
